For assay [1], the system named is intratumoral T-cell clonotypes (YUMM1.7ER metastases). The experiment in a line: Bulk tumor TCR-seq of tumor-involved brain and ovarian tissues. It counts as in vivo, mouse. The following applies: on d3; FIG. 6B.
Description: Total RNA was extracted from frozen tissue stored in RNALater using the QIAGEN All Prep DNA/RNA Mini Kit. RNA quality was measured using Bioanalyzer (Agilent). 710 ng-1,000 ng of RNA from ovary and brain tissues (RNA Integrity Number (RIN) score >7) was used as input to construct libraries with the QIAGEN QIAseq Immune Repertoire RNA Library Kit—T cell Receptor Panel (Qiagen). Briefly, RNA was reverse transcribed using a pool of TCR gene-specific primers against the constant region for the T cell receptor alpha, beta, gamma, and delta genes. The resulting cDNA was then ligated to an oligo containing one side of sample index and unique molecular index (UMI). […] The dual-indexed sample PCR fragment was purified and then quantified for absolute quantification of amplifiable libraries (DNA with adaptors at both ends) in triplicate by real-time qPCR using QIAGEN QIAseq Library Quant Array Kit. […] 12 μM of denatured library pool was run with QIAseq A Read1 Primer on Illumina NextSeq 500 Mid Output Kit using v2.5 chemistry for 300 cycles with an asymmetrical paired end 261/41 bp read for CDR3 region.
As reported previously (10), raw reads were submitted to the QIAGEN GeneGlobe Data Analysis Center (qiagen.com/us/shop/genes-and-pathways/data-analysis-center-overview-page/) to estimate the abundance of reads of unique CDR3 sequence and generate TCR clonotype calls. […]
For assay [2], the system named is YUMM1.7ER-luc (Braf^V600E melanoma) intracranial and extracranial metastases. The assay is described as follows: Experimental metastasis of syngeneic melanoma (intracardiac injection, BLI, survival). The following applies: MEKi monotherapy from d0.
Description: YUMM1.7ER melanoma cells were engineered to express firefly luciferase (YUMM1.7ER-luc). Before every IC injection, cells were selected for stable luciferase expression by blasticidin treatment, yielding cells (1 million) that emitted luciferase light units of 5e8 to 5e9 in vitro. C57BL/6 (6-8 weeks old, female), after anesthesia with vaporized isoflurane (2.0-2.5%), were injected with 1×10^6 cells/mouse into the left ventricle for intracardiac inoculation. Progression of metastatic tumor burden and treatment effects in mice were monitored in vivo and ex vivo by bioluminescent imaging (BLI). We acquired BLI on both ventral and dorsal sides twice weekly until study endpoints (total ventral or dorsal BLI signal in the range of 1e9-1e10, moribund, or death). Mice were anesthetized with vaporized isoflurane; D-luciferin (150 mg luciferin/kg, Caliper Life Sciences) dosed by intraperitoneal injections; and, 10 minutes after injections, luciferase activities were measured with IVIS Lumina II Imaging System (PerkinElmer). Image analysis was performed with Living Image 4.7.2 Version (PerkinElmer). For ex vivo BLI, mice were euthanized 10 minutes after intraperitoneal injection of D-luciferin by cervical dislocation and organs were excised and imaged ex vivo by the IVIS system. […]
For the next assay, the system named is NRAS^MUT melanoma. The following applies: patients with NRAS^MUT melanoma; cited from earlier work.

Results on 2 compounds are retold here after patent US20250066480A1, “METHODS TO ENHANCE EFFICACY OF COMBINED TARGETING OF IMMUNE CHECKPOINT AND MAPK PATHWAYS” (THE REGENTS OF THE UNIVERSITY OF CALIFORNIA, priority 2021, published 2025).

With `CC(=O)Nc1cccc(-n2c(=O)n(C3CC3)c(=O)c3c(Nc4ccc(I)cc4F)n(C)c(=O)c(C)c32)c1` [Trametinib, trametinib], in assay [1], the “Fraction of overlapping TCR clones between two distinct regions of tumor-involved brain tissues” value is on record as 6.17-9.77%. Besides, the “Delay of MBM” value in assay [2] is given as around 1.5 weeks. Turning to `Cn1cnc2c(F)c(Nc3ccc(Br)cc3F)c(C(=O)NOCCO)cc21` [binimetinib], in the assay with NRAS^MUT melanoma, the “Clinical benefit (median PFS, confirmed overall response, median duration of objective response) in association with prior ICT” value was “greater clinical benefit”.
